Measurements as given in ChEMBL document CHEMBL5584350, “Structural and Biochemical Insights into the Mechanism of Action of the Clinical USP1 Inhibitor, KSQ-4279” (J Med Chem, 2024).
Blank lines part the entries; values can stand above or below the compound they belong to. Calls of active or inactive are those of the source. No cut-off for these calls is given here.

Experiments:
[1] = system: Ubiquitin carboxyl-terminal hydrolase 1 (Homo sapiens), O94782 [UNDEFINED MUTATION]; assay: (§1) Binding affinity to human His6 tagged/TEV fused USP1 229 to 408/608 to 737 residues disordered inserts deletion mutant expressed in Sf21 insect cells assessed as displacement of N85 by measuring trypsin mediated protein truncation at F80 or R74 at 25 uM measured at 10 to 20 mins by instant-blue coomassie staining based SDS-PAGE analysis; conditions: time 10-20 min
[2] = system: Ubiquitin carboxyl-terminal hydrolase 1 (Homo sapiens), O94782 [UNDEFINED MUTATION]; assay: as §1, with “alpha-chymotrypsin” for “trypsin”; conditions: time 10-20 min
[3] = target: T1, Ubiquitin carboxyl-terminal hydrolase 1 (Homo sapiens) (UniProt O94782); assay: Inhibition of human USP1 using FANC1-FANCD2Ub-ds DNA as substrate assessed as reduction in FANCD2 deubiquitination at 25 uM measured after 0 to 20 mins by instant-blue coomassie staining based SDS-PAGE analysis; conditions: time 0-20 min
T1 sequence (whole entry): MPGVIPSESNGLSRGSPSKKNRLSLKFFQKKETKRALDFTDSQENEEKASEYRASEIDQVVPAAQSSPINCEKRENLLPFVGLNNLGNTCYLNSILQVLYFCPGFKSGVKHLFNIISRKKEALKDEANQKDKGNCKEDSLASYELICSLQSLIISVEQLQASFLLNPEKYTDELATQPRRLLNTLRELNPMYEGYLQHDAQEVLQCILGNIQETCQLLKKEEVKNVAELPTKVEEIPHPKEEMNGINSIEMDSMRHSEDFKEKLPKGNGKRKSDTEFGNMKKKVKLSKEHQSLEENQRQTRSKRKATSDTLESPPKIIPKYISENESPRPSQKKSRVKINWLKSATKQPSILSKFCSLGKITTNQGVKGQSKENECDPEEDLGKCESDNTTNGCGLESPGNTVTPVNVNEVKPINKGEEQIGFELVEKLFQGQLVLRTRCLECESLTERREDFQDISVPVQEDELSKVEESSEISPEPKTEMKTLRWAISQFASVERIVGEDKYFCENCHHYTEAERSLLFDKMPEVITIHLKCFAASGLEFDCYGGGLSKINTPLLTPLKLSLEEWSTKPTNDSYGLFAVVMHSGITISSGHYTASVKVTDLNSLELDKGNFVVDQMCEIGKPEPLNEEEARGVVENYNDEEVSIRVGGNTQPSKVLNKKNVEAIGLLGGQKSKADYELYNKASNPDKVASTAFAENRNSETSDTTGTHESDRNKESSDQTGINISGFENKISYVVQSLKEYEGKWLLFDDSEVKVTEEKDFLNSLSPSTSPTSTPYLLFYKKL

[4] = target: T1, Ubiquitin carboxyl-terminal hydrolase 1 (Homo sapiens); conditions: dose 50.0 µM
Description: Thermal stabilization of human USP1 assessed as increase in melting temperature at 50 uM by SYPRO Orange dye based thermal shift assay

[5] = Selectivity index, ratio of inhibition of USP12 (unknown origin) to IC50 for human USP1
[6] = target: Ubiquitin carboxyl-terminal hydrolase 11 (Homo sapiens) (UniProt P51784); assay: Inhibition of USP11 (unknown origin)
Ubiquitin carboxyl-terminal hydrolase 11 (Homo sapiens), sequence (P51784 whole entry, the tested form may be a part): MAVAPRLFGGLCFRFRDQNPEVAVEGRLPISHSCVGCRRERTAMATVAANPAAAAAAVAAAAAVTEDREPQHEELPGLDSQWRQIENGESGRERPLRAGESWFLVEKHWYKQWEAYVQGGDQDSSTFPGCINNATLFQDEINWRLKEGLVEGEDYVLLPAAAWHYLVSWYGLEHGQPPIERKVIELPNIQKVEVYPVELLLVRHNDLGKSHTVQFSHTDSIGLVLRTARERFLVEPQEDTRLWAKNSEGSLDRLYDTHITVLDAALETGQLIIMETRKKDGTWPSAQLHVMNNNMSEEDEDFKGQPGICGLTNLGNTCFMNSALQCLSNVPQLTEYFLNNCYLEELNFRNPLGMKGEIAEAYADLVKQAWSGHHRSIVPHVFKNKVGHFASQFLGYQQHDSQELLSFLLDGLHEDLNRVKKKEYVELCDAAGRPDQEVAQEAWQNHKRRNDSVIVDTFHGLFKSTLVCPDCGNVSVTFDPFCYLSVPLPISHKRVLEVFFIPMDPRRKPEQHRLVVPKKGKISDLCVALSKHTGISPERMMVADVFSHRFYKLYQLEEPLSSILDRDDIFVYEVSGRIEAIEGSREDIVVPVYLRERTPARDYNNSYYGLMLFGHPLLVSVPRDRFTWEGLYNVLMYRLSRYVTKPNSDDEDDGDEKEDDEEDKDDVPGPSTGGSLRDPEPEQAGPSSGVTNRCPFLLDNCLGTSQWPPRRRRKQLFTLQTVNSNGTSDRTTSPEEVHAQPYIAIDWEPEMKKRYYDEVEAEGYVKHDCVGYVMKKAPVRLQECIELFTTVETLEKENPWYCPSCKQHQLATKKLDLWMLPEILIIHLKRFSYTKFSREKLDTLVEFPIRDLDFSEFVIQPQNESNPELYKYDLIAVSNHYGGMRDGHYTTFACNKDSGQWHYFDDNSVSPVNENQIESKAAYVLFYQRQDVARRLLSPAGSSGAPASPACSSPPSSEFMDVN

Homo sapiens = species: Homo sapiens; assay: Thermal stabilization of human His6-smt3 fused USP7 catalytic domain (208 to 560 residues) expressed in Escherichia coli assessed as increase in melting temperature at 50 uM by SYPRO orange dye based thermal shift assay
[7] = target: Ubiquitin carboxyl-terminal hydrolase 12 (Homo sapiens) (UniProt O75317); assay: Inhibition of USP12 (unknown origin) at 10 uM relative to control
Ubiquitin carboxyl-terminal hydrolase 12 (Homo sapiens), sequence (O75317 whole entry): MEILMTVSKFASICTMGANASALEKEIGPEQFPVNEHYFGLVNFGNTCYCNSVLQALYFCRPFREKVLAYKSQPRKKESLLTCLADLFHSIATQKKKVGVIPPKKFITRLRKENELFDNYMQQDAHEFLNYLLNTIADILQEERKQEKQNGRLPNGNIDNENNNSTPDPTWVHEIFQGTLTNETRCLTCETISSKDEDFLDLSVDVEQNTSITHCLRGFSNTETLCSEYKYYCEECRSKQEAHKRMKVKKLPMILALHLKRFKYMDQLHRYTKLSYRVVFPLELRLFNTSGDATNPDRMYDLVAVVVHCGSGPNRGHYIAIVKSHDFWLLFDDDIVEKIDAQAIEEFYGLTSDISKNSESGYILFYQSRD

[8] = target: Ubiquitin carboxyl-terminal hydrolase 46 (Homo sapiens) (UniProt P62068); assay: Inhibition of USP46 (unknown origin) at 10 uM relative to control
Ubiquitin carboxyl-terminal hydrolase 46 (Homo sapiens), sequence (P62068 whole entry): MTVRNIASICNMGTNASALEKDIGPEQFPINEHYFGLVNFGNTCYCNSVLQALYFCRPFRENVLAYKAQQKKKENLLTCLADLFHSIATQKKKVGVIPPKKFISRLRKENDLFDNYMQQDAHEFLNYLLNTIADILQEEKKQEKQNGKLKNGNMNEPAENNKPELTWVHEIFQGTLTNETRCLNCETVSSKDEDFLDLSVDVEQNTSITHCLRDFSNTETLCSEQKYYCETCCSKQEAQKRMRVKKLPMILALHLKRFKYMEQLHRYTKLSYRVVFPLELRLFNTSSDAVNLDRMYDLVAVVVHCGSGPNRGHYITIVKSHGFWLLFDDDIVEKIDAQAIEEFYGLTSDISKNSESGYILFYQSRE

[9] = target: Ubiquitin carboxyl-terminal hydrolase 12 (Homo sapiens) (UniProt O75317); assay: Inhibition of human USP12 at 100 uM by ubiquitin-rhodamine assay relative to control
[10] = target: Ubiquitin carboxyl-terminal hydrolase 46 (Homo sapiens) (UniProt P62068); assay: Inhibition of human USP46 at 100 uM by ubiquitin-rhodamine assay relative to control

Activity [1]: inactive
Activity [2]: inactive
SMILES: O=C1c2ccccc2C(=O)c2oc(-c3ccccc3)nc21

inhibition [3]: inactive
ΔTm [4]: 11 °C
Selectivity Index [5]: 100
inhibition [6]: inactive
Activity (Homo sapiens): inactive
SMILES: Cc1cnc(-c2ccccc2C(C)C)nc1NCc1ccc(-n2ccnn2)cc1

inhibition [7]: 50%
inhibition [8]: 50%
SMILES: CC(C)c1ccccc1-c1ncc2[nH]c(=O)n(Cc3ccc(-c4nc(C(F)(F)F)cn4C)cc3)c2n1

inhibition [9]: < 50%
inhibition [6]: inactive
inhibition [10]: < 50%
Activity (Homo sapiens): inactive
SMILES: COc1ncnc(C2CC2)c1-c1ncc2cnn(Cc3ccc(-c4nc(C(F)(F)F)cn4C(C)C)cc3)c2n1
